Source: patent US20120035320A1, “POLYACRIDINE NUCLEIC ACID DELIVERY PEPTIDE COMPLEXES” (University of Iowa Research Foundation, priority 2010, published 2012)
No end group written: not given here. Acr = acridine on the lysine ε-amine; PEG = not defined here

What was measured:
[1] = tested on: liver; assay: hydrodynamic stimulation and bioluminescence imaging of luciferase expression; format: in vivo, mice; conditions: 1 μg pGL3 dose, HD stimulation after 30 min, 24 hrs
Method: pGL3 (1 μg) was prepared in a volume of normal saline corresponding to 9 wt/vol % of the mouse's body weight (1.8-2.25 ml based on 20-25 g mice). The DNA dose was administered by tail vein to 4-5 mice in 5 sec according to a published procedure (Liu F, Song Y, Liu D. Hydrodynamics-based transfection in animals by systemic administration of plasmid DNA. Gene Ther 1999; 6: 1258-1266; Zhang G, Budker V, Wolff J A. High levels of foreign gene expression in hepatocytes after tail vein injections of naked plasmid DNA. Human Gene Therapy 1999; 10: 1735-1737). Mice (4-5) were also dosed tail vein with 1 μg of PEGylated polyacridine polyplex in 50 μl of HBM (5 mM Hepes, 0.27 M mannitol, pH 7.4). At times ranging from 5-120 min, a stimulatory hydrodynamic dose of normal saline (9 wt/vol % of the body weight) was administered over 5 sec. At 24 hrs post-DNA dose, mice were anesthetized by 3% isofluorane, then administered an i.p. dose of 80 μl (2.4 mg) of D-luciferin (30 μg/μl in phosphate-buffered saline). At 5 min following the D-luciferin dose, mice were imaged for bioluminescence (BLI) on an IVIS Imaging 200 Series (Xenogen). BLI was performed in a light-tight chamber on a temperature-controlled, adjustable stage while isofluorane was administered by a gas manifold at a flow rate of 3%. Images were acquired at a ‘medium’ binning level and a 20 cm field of view. Acquisition times were varied (1 sec^−1 min) depending on the intensity of the luminescence. The Xenogen system reported bioluminescence as photons/sec/cm^2/seradian in a 2.86 cm diameter region of interest covering the liver. The integration area was transformed to pmols of luciferase in the liver using a previously reported standard curve (Rettig G et al. Quantitative Bioluminscence Imaging of Transgene Expression In Vivo. Analytical Biochemistry 2006; 335: 90-94). The results were determined to be statistically significant (p≦0.05) based on a two-tailed unpaired t-test.

[2] = following i.v. dosing; Collard et al. 2000; cited from earlier work
[3] = tested on: DC-SIGN (+) and (−) CHO cells; assay: in vitro transfection with glycopeptide DNA polyplexes; format: cell-based, human; conditions: luciferase, 24 hrs
Method: DC-SIGN (+) CHO cells (1×10^5) were plated in 6-well plates in triplicate in 1 ml DMEM high glucose supplemented with 7% FBS and 1% MEM non-essential amino acids. After incubation for 24 hrs at 37° C. in 5% CO2, the media was removed, the cells were washed with 1 ml DPBS, replaced with 1 ml DMEM high glucose media supplemented with 2% FBS and 0.3% MEM non-essential amino acids.
Cells were transfected in triplicate for 24 hrs with pGL3 polyplexes (1 μg DNA and 0.6 nmol of glycopeptide in a total volume of 30 μl). The efficiency of glycopeptide DNA polyplex transfection was compared with PEI-DNA transfection performed by combining 1 μg DNA with 1.2 μg of PEI (N:P of 9) in 100 μl of 5 mM Hepes, 270 mM mannitol, pH 7.4. After 24 hrs, cells were washed with 2 ml of DPBS and lysed with 0.5 ml of lysis buffer (25 mM tris chloride, 1 mM EDTA, 8 mM magnesium chloride, 1% Triton X-100, pH 7.8) for 10 min at 4° C. […] The relative light units were determined with 10 sec integration after automatic injection of 100 μl of 0.43 mM D-luciferin. Protein concentrations were measured by a BCA assay with bovine serum albumin as a standard (Smith, P. K., Krohn, R. I., Hermanson, G. T., Mallia, A. K., Gartner, F. H., Provenzano, M. D., Fujimoto, E. K., Goeke, N. M., Olson, B. J., and Klenk, D. C. (1985) Measurement of protein using bicinchoninic acid. Anal Biochem 150, 76-85). […]

[4] = tested on: plasmid; assay: DNA band shift assay of Man9-(Acr-Lys)6; format: binding
Description: (§1) We tested Man9-N-glycan polyacridine peptides as a DNA vaccine adjuvant for use in combination with an intramuscular electroporation apparatus. […] The Man9-(Acr-Lys)6 (SEQ ID NO: 42) that we used for this study has the following structure of In certain embodiments the compound is Formula IVb: […]

[5] = tested on: Mice; assay: IM-EP of Man9-(Acr-Lys)6 DNA in mice; format: in vivo; conditions: intramuscular electroporation, 1 μg DNA
Method: as §1
The inventors obtained mouse data illustrating the electroporation apparatus expression of Man9-(Acr-Lys)6 (SEQ ID NO: 42) DNA (1 μg) at 0 and 0.012 nmoles of Man9-(Acr-Lys)6 (SEQ ID NO: 42) per μg of DNA (FIG. 32). The luciferase gene expression was equivalent at 0, 0.003 and 0.006 nmols of Man9 per μg of DNA, and then decreased at 0.0125 nmols of Man9 and higher. 0.0125 nmols of Man9-(Acr-Lys)6 (SEQ ID NO: 42) per μg of DNA corresponds 40 copies of Man9 per plasmid.

Substance: PEG-Cys-Trp-Lys18: PEGylated polylysine peptide control, SEQ ID NO: 34 (C(PEG)WKKKKKKKKKKKKKKKKKK; reading uncertain)
- stimulated luciferase expression of controls [1]: failed to produce measurable expression
- stimulated luciferase expression of controls ([1]; listed as PEGylated-Cys-Trp-Lys18): no detectable luciferase expression
- complete metabolism of plasmid DNA in the circulation [2]: ≤ 3 min

Substance: Cys-(Acr-Lys)4: DNA binding polyacridine peptide with N-terminal Cys, prepared with Fmoc-Lys(Acr); SEQ ID NO: 23
- selectivity of gene transfer for CHO (+) or (−) cells [3]: did not demonstrate selectivity

Substance: Man9-(Acr-Lys)6: Iodoacetamide Man9 N-glycan reacted with Cys(Acr-Lys)6; Formula IVb (K(Acr)KK(Acr)KK(Acr)KK(Acr)KK(Acr)KK(Acr)K; not fully specified (N-terminus); also: Man9 N-glycan attached via iodoacetamide to a Cys not shown in chain)
- copies bound to plasmid [4]: up to 40 copies
- luciferase gene expression at 0, 0.003 and 0.006 nmols of Man9 per μg of DNA [5]: equivalent
- luciferase gene expression at 0.0125 nmols of Man9 and higher [5]: decreased
